Results from ChEMBL document CHEMBL3525899, “Identification of the cytochrome P450 and other enzymes involved in the in vitro oxidative metabolism of a novel antidepressant, Lu AA21004” (Drug Metab Dispos, 2012).
One block for each compound: values may come before it.

Legend:
[1] = Drug metabolism in human liver S9 fractions assessed as formation of 3-methyl-4-(2-(piperazin-1-yl)phenylthio)benzoic acid at 8 to 50 uM after 20 mins by HPLC/MS-MS analysis in presence of NADPH regenerating system with NAD+; type: ADME, subcellular, Liver S9 fraction; settings: s9, 20 min
[2] = Drug metabolism in human liver S9 fractions assessed as formation of 3-methyl-4-(2-(piperazin-1-yl)phenylthio)benzoic acid at 8 to 50 uM after 20 mins by HPLC/MS-MS analysis in absence of NADPH regenerating system with NAD+; type: ADME, tissue-based; settings: s9, 20 min
[3] = (§1) Drug metabolism in pooled human liver S9 fractions assessed as formation of 3-methyl-4-(2-(piperazin-1-yl)phenylthio)benzoic acid at 2 to 50 uM after 20 mins by HPLC/MS-MS analysis in presence of NADPH regenerating system with NAD+ and xanthine oxidase inhibitor allopurinol; type: ADME, subcellular, Liver S9 fraction; settings: s9, 20 min
[4] = tested on: Liver microsome; assay: Drug metabolism in pooled human liver microsomes assessed as formation of 3-methyl-4-(2-(piperazin-1-yl)phenylthio)benzoic acid after 20 mins by Michaelis-Menten plot analysis in presence of NADPH regenerating system with NADP+; type: ADME; settings: read-out: Km(app)
[5] = tested on: Liver microsome; assay: Drug metabolism in pooled human liver microsomes assessed as formation of 3-methyl-4-(2-(piperazin-1-yl)phenylthio)benzoic acid per mg of protein after 20 mins by Michaelis-Menten plot analysis in presence of NADPH regenerating system with NADP+; type: ADME
[6] = tested on: Liver microsome; assay: Intrinsic clearance in pooled human liver microsomes assessed as Vmax(app)/Km(app) for formation of 3-methyl-4-(2-(piperazin-1-yl)phenylthio)benzoic acid per mg of protein after 20 mins by Michaelis-Menten plot analysis in presence of NADPH regenerating system with NADP+; type: ADME
[7] = Drug metabolism in pooled human liver S9 fractions assessed as formation of 3-methyl-4-(2-(piperazin-1-yl)phenylthio)benzoic acid after 20 mins by Michaelis-Menten plot analysis in presence of NADPH regenerating system with NADP+; type: ADME, subcellular, Liver S9 fraction; settings: s9, 20 min, read-out: Km(app)
[8] = Drug metabolism in pooled human liver S9 fractions assessed as formation of 3-methyl-4-(2-(piperazin-1-yl)phenylthio)benzoic acid per mg of protein after 20 mins by Michaelis-Menten plot analysis in presence of NADPH regenerating system with NADP+; type: ADME, subcellular, Liver S9 fraction; settings: s9, 20 min
[9] = Intrinsic clearance in pooled human liver S9 fractions assessed as Vmax(app)/Km(app) for formation of 3-methyl-4-(2-(piperazin-1-yl)phenylthio)benzoic acid per mg of protein after 20 mins by Michaelis-Menten plot analysis in presence of NADPH regenerating system with NADP+; type: ADME, subcellular, Liver S9 fraction; settings: s9, 20 min
[10] = target: Liver microsome; assay: Uncompetitive substrate inhibition in pooled human liver microsomes assessed as formation of 3-methyl-4-(2-(piperazin-1-yl)phenylthio)benzoic acid after 20 mins by Michaelis-Menten plot analysis in presence of NADPH regenerating system with NADP+; type: ADME
[11] = as §1, with “NAD+, aldehyde dehydrogenase inhibitor disulfiram, aldehyde” for “NAD+ and xanthine”, “raloxifene and alcohol dehydrogenase inhibitor 4-methylpyrazole” for “allopurinol”; type: ADME, subcellular, Liver S9 fraction; settings: s9, 20 min
[12] = tested on: Liver microsome; assay: Drug metabolism in phenotyped human liver microsomes assessed as formation of 3-methyl-4-(2-(piperazin-1-yl)phenylthio)benzoic acid at 8 to 50 uM after 15 mins by HPLC/MS-MS analysis in presence of NADPH regenerating system with NADP+; type: ADME; settings: 0.25 h
[13] = tested on: Liver microsome; assay: Drug level in phenotyped human liver microsomes treated with Lu AA21004 at 8 to 50 uM after 60 mins by HPLC/MS-MS analysis in presence of NADPH regenerating system with NADP+; type: ADME; settings: 1 h
[14] = tested on: Liver microsome; assay: Drug metabolism in human liver microsomes assessed as formation of 3-methyl-4-(2-(piperazin-1-yl)phenylthio)benzoic acid at 50 uM after 20 mins by HPLC/MS-MS analysis in presence of NADPH regenerating system with NADP+; type: ADME
[15] = tested on: Liver microsome; assay: Drug metabolism in human liver microsomes assessed as formation of 3-methyl-4-(2-(piperazin-1-yl)phenylthio)benzoic acid at 50 uM after 20 mins by HPLC/MS-MS analysis in absence of NADPH regenerating system with NADP+; type: ADME
[16] = tested on: Liver microsome; assay: Drug level in pooled human liver microsomes treated with Lu AA21004 at 100 uM after 30 to 180 mins by HPLC/MS-MS analysis in presence of NADPH regenerating system with NADP+; type: ADME
[17] = target: T1, Cytochrome P450 2D6 (Homo sapiens, UniProt P10635); assay: (§2) Activity of human recombinant CYP2D6 expressed in microsomes isolated from human AHH-1 cells assessed as enzyme-mediated compound formation treated with Lu AA21004 at 8 to 50 uM after 120 mins by HPLC/MS-MS analysis in presence of NADPH regenerating system with NADP+; type: ADME, cell-free; settings: 2 h
[18] = target: Cytochrome P450 2C9 (Homo sapiens, UniProt P11712); assay: Activity of human recombinant CYP2C9 expressed in microsomes isolated from human AHH-1 cells assessed as enzyme-mediated compound formation treated with Lu AA21004 at 8 to 50 uM after 120 mins by HPLC/MS-MS analysis in presence of NADPH regenerating system with NADP+; type: ADME, cell-free; settings: 2 h
[19] = target: Cytochrome P450 2C19 (Homo sapiens, UniProt P33261); assay: Activity of human recombinant CYP2C19 expressed in microsomes isolated from human AHH-1 cells assessed as enzyme-mediated compound formation treated with Lu AA21004 at 8 to 50 uM after 120 mins by HPLC/MS-MS analysis in presence of NADPH regenerating system with NADP+; type: ADME, cell-free; settings: 2 h
[20] = target: T2, Cytochrome P450 2B6 (Homo sapiens, UniProt P20813); assay: Activity of human recombinant CYP2B6 expressed in microsomes isolated from human AHH-1 cells assessed as enzyme-mediated compound formation treated with Lu AA21004 at 8 to 50 uM after 120 mins by HPLC/MS-MS analysis in presence of NADPH regenerating system with NADP+; type: ADME, cell-free; settings: 2 h
T2 sequence (P20813 whole entry): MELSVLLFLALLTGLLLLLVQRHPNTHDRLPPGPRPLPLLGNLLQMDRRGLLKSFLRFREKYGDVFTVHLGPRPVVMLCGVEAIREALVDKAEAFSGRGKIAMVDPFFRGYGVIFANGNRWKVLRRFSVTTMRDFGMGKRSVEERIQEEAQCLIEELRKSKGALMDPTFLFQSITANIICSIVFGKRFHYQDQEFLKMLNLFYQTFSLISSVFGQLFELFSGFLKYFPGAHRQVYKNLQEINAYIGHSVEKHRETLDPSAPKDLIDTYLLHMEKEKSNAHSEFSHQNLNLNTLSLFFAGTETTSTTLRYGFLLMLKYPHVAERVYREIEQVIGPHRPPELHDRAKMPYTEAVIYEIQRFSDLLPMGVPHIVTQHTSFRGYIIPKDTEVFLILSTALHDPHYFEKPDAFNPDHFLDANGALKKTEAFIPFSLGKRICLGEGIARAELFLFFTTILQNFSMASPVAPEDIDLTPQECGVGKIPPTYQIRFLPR

[21] = tested on: Liver microsome; assay: Drug level in human liver microsomes treated with (3-methyl-4-(2-(piperazin-1-yl)phenylthio)phenyl)methanol at 50 uM after 20 mins by HPLC/MS-MS analysis in presence of NADPH regenerating system with NADP+; type: ADME
[22] = tested on: Liver microsome; assay: Drug level in human liver microsomes treated with (3-methyl-4-(2-(piperazin-1-yl)phenylthio)phenyl)methanol at 50 uM after 20 mins by HPLC/MS-MS analysis in absence of NADPH regenerating system with NADP+; type: ADME
[23] = Drug level in human liver S9 fractions treated with (3-methyl-4-(2-(piperazin-1-yl)phenylthio)phenyl)methanol at 8 to 50 uM after 20 mins by HPLC/MS-MS analysis in presence of NADPH regenerating system with NAD+; type: ADME, subcellular, Liver S9 fraction; settings: s9, 20 min
[24] = tested on: Liver; assay: Drug level in human liver S9 fractions treated with (3-methyl-4-(2-(piperazin-1-yl)phenylthio)phenyl)methanol at 8 to 50 uM after 20 mins by HPLC/MS-MS analysis in absence of NADPH regenerating system with NAD+; type: ADME, tissue-based; settings: s9, 20 min
[25] = target: T1, Cytochrome P450 2D6; assay: as §2, with “(3-methyl-4-(2-(piperazin-1-yl)phenylthio)phenyl)methanol” for “Lu AA21004”; type: ADME, cell-free; settings: 2 h
[26] = tested on: Liver microsome; assay: Drug level in phenotyped human liver microsomes treated with (3-methyl-4-(2-(piperazin-1-yl)phenylthio)phenyl)methanol at 8 to 50 uM after 15 mins by HPLC/MS-MS analysis in presence of NADPH regenerating system with NADP+; type: ADME; settings: 0.25 h
[27] = Drug level in pooled human liver S9 fractions treated with (3-methyl-4-(2-(piperazin-1-yl)phenylthio)phenyl)methanol at 2 to 50 uM after 20 mins by HPLC/MS-MS analysis in presence of NADPH regenerating system with NAD+ and xanthine oxidase inhibitor allopurinol; type: ADME, subcellular, Liver S9 fraction; settings: s9, 20 min
[28] = target: Cytochrome P450 3A4 (Homo sapiens, UniProt P08684); assay: Activity of human recombinant CYP3A4 expressed in microsomes isolated from human AHH-1 cells assessed as enzyme-mediated compound formation treated with Lu AA21004 at 8 to 50 uM after 120 mins by HPLC/MS-MS analysis in presence of NADPH regenerating system with NADP+; type: ADME, cell-free; settings: 2 h
[29] = target: T3, Cytochrome P450 2A6 (Homo sapiens, UniProt P11509); assay: Activity of human recombinant CYP2A6 expressed in microsomes isolated from human AHH-1 cells assessed as enzyme-mediated compound formation treated with Lu AA21004 at 8 to 50 uM after 120 mins by HPLC/MS-MS analysis in presence of NADPH regenerating system with NADP+; type: ADME, cell-free; settings: 2 h
T3 sequence (P11509 whole entry): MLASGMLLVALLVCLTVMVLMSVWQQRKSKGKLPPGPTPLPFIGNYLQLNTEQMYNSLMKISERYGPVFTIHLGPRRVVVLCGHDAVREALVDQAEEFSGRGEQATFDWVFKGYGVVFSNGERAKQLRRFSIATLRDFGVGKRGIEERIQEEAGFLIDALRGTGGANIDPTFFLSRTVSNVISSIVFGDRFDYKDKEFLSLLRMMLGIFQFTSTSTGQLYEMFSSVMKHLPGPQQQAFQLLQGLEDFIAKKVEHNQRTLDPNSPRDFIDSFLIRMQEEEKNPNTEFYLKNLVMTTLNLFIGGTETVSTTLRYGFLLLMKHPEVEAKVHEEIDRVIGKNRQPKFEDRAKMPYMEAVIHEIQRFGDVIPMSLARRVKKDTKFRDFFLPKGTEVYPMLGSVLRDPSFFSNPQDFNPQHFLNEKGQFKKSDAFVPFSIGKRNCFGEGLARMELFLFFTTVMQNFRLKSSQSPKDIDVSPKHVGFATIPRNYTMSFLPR

[30] = target: T4, Cytochrome P450 2C8 (Homo sapiens, UniProt P10632); assay: Activity of human recombinant CYP2C8 expressed in microsomes isolated from human AHH-1 cells assessed as enzyme-mediated compound formation treated with Lu AA21004 at 8 to 50 uM after 120 mins by HPLC/MS-MS analysis in presence of NADPH regenerating system with NADP+; type: ADME, cell-free; settings: 2 h
T4 sequence (P10632 whole entry): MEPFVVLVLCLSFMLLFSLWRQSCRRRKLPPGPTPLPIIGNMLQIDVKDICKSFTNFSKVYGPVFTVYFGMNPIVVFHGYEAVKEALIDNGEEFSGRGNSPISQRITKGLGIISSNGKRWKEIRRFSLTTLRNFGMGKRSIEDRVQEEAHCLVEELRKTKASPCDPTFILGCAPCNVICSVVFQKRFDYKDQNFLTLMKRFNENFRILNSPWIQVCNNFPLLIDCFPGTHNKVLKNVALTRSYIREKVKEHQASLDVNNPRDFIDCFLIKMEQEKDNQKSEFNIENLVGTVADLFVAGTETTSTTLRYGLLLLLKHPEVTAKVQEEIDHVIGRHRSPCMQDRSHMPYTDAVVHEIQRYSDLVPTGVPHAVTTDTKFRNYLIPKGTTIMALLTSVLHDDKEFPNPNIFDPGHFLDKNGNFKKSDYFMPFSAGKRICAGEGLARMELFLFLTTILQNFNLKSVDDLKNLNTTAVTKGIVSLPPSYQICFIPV

Chain of Cytochrome P450 2C9 (P11712 whole entry): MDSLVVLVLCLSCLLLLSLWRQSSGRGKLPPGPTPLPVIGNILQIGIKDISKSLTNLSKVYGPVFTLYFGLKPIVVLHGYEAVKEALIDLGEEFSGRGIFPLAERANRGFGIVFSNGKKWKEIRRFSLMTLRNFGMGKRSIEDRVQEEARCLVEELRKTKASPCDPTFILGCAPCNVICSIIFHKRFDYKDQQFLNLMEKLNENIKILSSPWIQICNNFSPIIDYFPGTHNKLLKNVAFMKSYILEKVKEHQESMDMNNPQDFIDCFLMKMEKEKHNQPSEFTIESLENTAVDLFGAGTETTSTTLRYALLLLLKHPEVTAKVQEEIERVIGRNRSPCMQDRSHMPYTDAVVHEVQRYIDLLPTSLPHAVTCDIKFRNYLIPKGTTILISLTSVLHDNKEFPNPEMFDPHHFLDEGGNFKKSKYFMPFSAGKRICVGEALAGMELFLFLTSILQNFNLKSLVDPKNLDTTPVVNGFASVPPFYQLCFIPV
T1 sequence (P10635 whole entry): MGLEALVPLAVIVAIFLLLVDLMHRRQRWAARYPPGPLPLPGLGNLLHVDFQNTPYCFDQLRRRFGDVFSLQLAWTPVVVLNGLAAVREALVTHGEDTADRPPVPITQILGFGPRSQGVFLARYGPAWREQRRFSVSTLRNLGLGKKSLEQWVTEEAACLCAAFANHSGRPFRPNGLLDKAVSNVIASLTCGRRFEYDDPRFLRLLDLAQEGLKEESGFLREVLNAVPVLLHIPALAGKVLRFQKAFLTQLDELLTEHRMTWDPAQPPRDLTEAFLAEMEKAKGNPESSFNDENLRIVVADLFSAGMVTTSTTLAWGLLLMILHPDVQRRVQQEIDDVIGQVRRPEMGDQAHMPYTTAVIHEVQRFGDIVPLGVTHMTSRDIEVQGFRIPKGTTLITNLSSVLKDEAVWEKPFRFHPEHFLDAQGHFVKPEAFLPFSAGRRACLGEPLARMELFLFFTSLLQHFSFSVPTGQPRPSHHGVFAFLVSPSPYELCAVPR
Chain of Cytochrome P450 2C19 (P33261 whole entry): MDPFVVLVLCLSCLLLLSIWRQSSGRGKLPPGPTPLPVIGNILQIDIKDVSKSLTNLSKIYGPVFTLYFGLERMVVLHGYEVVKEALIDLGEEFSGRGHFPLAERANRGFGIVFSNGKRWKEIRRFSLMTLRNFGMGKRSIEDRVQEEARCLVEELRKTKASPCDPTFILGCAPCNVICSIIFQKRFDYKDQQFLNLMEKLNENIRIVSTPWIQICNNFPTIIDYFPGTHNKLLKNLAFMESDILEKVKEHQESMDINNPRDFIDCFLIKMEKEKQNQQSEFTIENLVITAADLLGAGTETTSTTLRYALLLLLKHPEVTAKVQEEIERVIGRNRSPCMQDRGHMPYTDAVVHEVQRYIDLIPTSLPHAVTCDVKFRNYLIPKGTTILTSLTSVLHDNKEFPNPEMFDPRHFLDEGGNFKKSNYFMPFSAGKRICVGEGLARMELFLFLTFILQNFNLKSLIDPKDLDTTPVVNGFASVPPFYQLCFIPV
Chain of Cytochrome P450 3A4 (P08684 whole entry): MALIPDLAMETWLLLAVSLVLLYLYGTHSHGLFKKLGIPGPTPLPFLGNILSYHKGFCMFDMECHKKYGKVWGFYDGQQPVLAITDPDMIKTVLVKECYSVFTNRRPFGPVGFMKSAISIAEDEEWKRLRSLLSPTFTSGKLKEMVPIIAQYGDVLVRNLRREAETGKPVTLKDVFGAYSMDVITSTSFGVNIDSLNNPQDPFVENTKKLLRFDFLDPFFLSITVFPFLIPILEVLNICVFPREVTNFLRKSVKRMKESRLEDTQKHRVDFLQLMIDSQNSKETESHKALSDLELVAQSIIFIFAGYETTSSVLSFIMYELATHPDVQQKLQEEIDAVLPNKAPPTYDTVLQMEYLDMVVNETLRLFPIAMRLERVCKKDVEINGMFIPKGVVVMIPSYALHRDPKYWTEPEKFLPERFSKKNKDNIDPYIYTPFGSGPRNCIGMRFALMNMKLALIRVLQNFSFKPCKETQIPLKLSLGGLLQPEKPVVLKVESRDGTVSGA

Structure (SMILES): Cc1ccc([S+]([O-])c2ccccc2N2CCNCC2)c(C)c1.O=C(O)/C=C/C(=O)O (centres undefined)
Drug metabolism [28]: metabolite_detected | Drug metabolism [29]: metabolite_detected | Drug metabolism [30]: metabolite_detected | Drug metabolism [13]: metabolite_detected | Drug metabolism [16]: metabolite_detected

Structure (SMILES): Cc1ccc(Sc2cc([O-])ccc2N2CCNCC2)c(C)c1.[Na+]
Drug metabolism [13]: metabolite_detected | Drug metabolism [16]: metabolite_detected | Drug metabolism [17]: metabolite_detected | Drug metabolism [18]: metabolite_detected | Drug metabolism [19]: metabolite_detected

More lines, now with the values ahead:

Drug metabolism [1]: metabolite_detected | Drug metabolism [2]: metabolite_detected | Drug metabolism [3]: metabolite_detected | Km [4]: 95 µM | Vmax(app) [5]: 59 pmol/min | Vmax/Km [6]: 0.621 µL/min | Km [7]: 1.7 µM | Vmax(app) [8]: 1567 pmol/min | Vmax/Km [9]: 922 µL/min | Ki [10]: 275 µM | Drug metabolism [11]: metabolite_not_detected | Drug metabolism [12]: metabolite_detected | Drug metabolism [13]: metabolite_detected | Drug metabolism [14]: metabolite_detected | Drug metabolism [15]: metabolite_detected | Drug metabolism [16]: metabolite_detected | Drug metabolism [17]: metabolite_detected | Drug metabolism [18]: metabolite_detected | Drug metabolism [19]: metabolite_detected
Structure (SMILES): Cc1cc(CO)ccc1Sc1ccccc1N1CCNCC1

Drug metabolism [20]: metabolite_detected | Drug metabolism [13]: metabolite_detected | Drug metabolism [16]: metabolite_detected | Drug metabolism [18]: metabolite_detected | Drug metabolism [19]: metabolite_detected
Structure (SMILES): Cc1ccc(Sc2ccccc2N2CCN(O)CC2)c(C)c1

Drug metabolism [21]: metabolite_detected | Drug metabolism [22]: metabolite_detected | Drug metabolism [23]: metabolite_detected | Drug metabolism [24]: metabolite_detected | Drug metabolism [25]: metabolite_detected | Drug metabolism [26]: metabolite_detected | Drug metabolism [27]: metabolite_detected | Drug metabolism [13]: metabolite_detected | Drug metabolism [16]: metabolite_detected | Drug metabolism [17]: metabolite_detected
Structure (SMILES): Cc1cc(C(=O)O)ccc1Sc1ccccc1N1CCNCC1
